From US10730875B2, “Substituted imidazo[1,2-A]pyridin-2-ylamine compounds, and pharmaceutical compositions and methods of use thereof” (JN Therapeutics, priority 2015, dated 2020) come the findings set out here.

Some results are limits rather than exact numbers.

Assay type in all cases: biochemical
The target of test [1] is human Janus kinase 1 (JAK1), recombinant catalytic domain (Homo sapiens (Human), UniProt P23458). Description: LanthaScreen TR-FRET enzymatic assay, JAK1. To be noted: 1 mM ATP, GFP-STAT1 substrate, read-out: Inhibitory Activity IC50 JAK1. How it is done:
(§1) The in vitro inhibition of recombinant human JAKs was determined as follow.
(§2) Compounds were tested in LANTHASCREEN™ time-resolved fluorescence energy transfer (TR-FRET) enzymatic assays from Invitrogen. The human Janus kinase 1 (JAK1) used in the assay is the recombinant JAK1 catalytic domain (amino acids 866-1154) expressed and purified from insect cells (Invitrogen, Cat. No. PV4774). The human Janus kinase 2 (JAK2) used in the assay is the recombinant JAK2 catalytic domain (amino acids 808-1132) expressed and purified from insect cells (Invitrogen, Cat. No. PV4210). The human Janus kinase 3 (JAK3) used in the assay is the recombinant JAK3 catalytic domain (amino acids 781-1124) expressed and purified from insect cells (Invitrogen, Cat. No. PV3855). The human tyrosine kinase 2 (TYK2) used in the assay is the recombinant TYK2 catalytic domain (amino acids 833-1187) expressed and purified from insect cells (Invitrogen, Cat. No. PV4790). The substrate is a recombinant STAT1 expressed as a fusion with GFP (Green Fluorescent Protein) to act as a physiological substrate (Invitrogen, Cat. No. PV5211).
(§3) Test compounds were prepared and diluted in DMSO in 3-fold serial dilutions for 10 doses to 100× of the final testing concentrations. The compounds were then further diluted to 4× by the kinase reaction buffer (Invitrogen, Cat. No. PV3189). The enzymatic reaction for compound testing was performed in a white 384-well polypropylene plate (Packard, Cat. No. 6005214) with a total reaction volume of 10 μL containing 440 ng/mL JAK1, 11 ng/mL JAK2, 400 ng/mL JAK3, or 200 ng/mL TYK2, 100 nM substrate, and 1 mM ATP. The assay started with loading 2.5 μL of JAK1, JAK2, JAK3, or TYK2 diluted in the kinase reaction buffer to wells, followed by addition of an equal volume of 4× compounds for 15-min incubation at room temperature for pre-treatment. The enzymatic reaction was initiated by addition of 5 μL of a mixture of the substrate and ATP prepared in the kinase reaction buffer. After one hour reaction, 10 μL mixture of EDTA (final 10 mM) and terbium-labeled anti-pSTAT1 (pTyr701) antibody (final 2 nM) (Invitrogen, Cat. No. PV4844) prepared in TR-FRET antibody dilution buffer (Invitrogen, Cat. No. PV3574) was added to stop the enzymatic reaction and produce TR-FRET signals. After 30 minutes of incubation at room temperature, the plate was read in Tecan Infinite F200 Pro with the following settings: Excitation 340 nm (30)/Emission1 495 nm (10)/Emission2 520 nm (25). The TR-FRET values were dimensionless numbers that were calculated as the ratio of the acceptor ([…]) signal to the donor (Terbium) signal. Percent of inhibition was calculated as (100%−percentage of compound-treated/DMSO vehicle-treated). The dose-response curves were generated and the IC50s were calculated by nonlinear sigmoid curve fitting using GraphPad Prism.
(§4) In Table 1, A represents a value no greater than 500 nM, B represents a value greater than 500 nM but no greater than 1 μM, C represents a value greater than 1 μM but no greater than 5 μM, and D represents a value greater than 5 μM. In Table 2, A′ represents a ratio of greater than 8, B′ represents a ratio of no greater than 8 but no less than 4, C′ represents a ratio of no greater than 4 but no less than 2, and D′ represents a ratio of no greater than 2. The selectivity is expressed as a ratio of the IC50 values of a compound against two kinases to be compared.
(In TR-FRET formats the signal depends on donor and acceptor labels being close together.)

In test [2] the test system is human Janus kinase 3 (JAK3), recombinant catalytic domain. Description: LanthaScreen TR-FRET enzymatic assay, JAK3. Particulars: ratio of IC50 against JAK3 over IC50 against JAK1. How it is done:
as §1, §2, §3, §4

For test [3], the target named is human Janus kinase 3 (JAK3), recombinant catalytic domain (Homo sapiens (Human), UniProt P52333). Description: LanthaScreen TR-FRET enzymatic assay, JAK3. To be noted: TR-FRET, 1 mM ATP, GFP-STAT1 substrate; read-out: Inhibitory Activity IC50 JAK3. How it is done:
as §1, §2, §3, §4

For test [4], the system named is human tyrosine kinase 2 (TYK2), recombinant catalytic domain. Description: LanthaScreen TR-FRET enzymatic assay, TYK2. Particulars: ratio of IC50 against TYK2 over IC50 against JAK1. The procedure:
as §1, §2, §3, §4

Test [5] has as its target human tyrosine kinase 2 (TYK2), recombinant catalytic domain (Homo sapiens (Human), UniProt P29597). Description: LanthaScreen TR-FRET enzymatic assay, TYK2. To be noted: TR-FRET, 1 mM ATP, GFP-STAT1 substrate; read-out: Inhibitory Activity IC50 TYK2. How it is done: as §1, §2, §3, §4
In test [6] the target is human Janus kinase 2 (JAK2), recombinant catalytic domain (Homo sapiens (Human), UniProt O60674). In words: LanthaScreen TR-FRET enzymatic assay, JAK2. To be noted: for IC50: TR-FRET, 1 mM ATP, GFP-STAT1 substrate, read-out: Inhibitory Activity IC50 JAK2; for Selectivity JAK2/JAK1: ratio of IC50 against JAK2 over IC50 against JAK1. How it is done:
as §1, §2, §3, §4

human Janus kinase 1 (JAK1), recombinant catalytic domain, sequence (P23458 866-1154): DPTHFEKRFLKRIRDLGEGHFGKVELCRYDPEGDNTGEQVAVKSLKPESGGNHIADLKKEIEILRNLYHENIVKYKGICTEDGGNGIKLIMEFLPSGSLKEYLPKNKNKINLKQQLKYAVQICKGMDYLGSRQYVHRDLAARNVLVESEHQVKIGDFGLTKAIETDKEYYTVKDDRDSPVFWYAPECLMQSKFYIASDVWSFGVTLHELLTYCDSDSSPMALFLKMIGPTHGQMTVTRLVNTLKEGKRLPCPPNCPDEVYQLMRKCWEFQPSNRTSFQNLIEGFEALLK
human Janus kinase 3 (JAK3), recombinant catalytic domain (Homo sapiens (Human), UniProt P52333), sequence (P52333 781-1124): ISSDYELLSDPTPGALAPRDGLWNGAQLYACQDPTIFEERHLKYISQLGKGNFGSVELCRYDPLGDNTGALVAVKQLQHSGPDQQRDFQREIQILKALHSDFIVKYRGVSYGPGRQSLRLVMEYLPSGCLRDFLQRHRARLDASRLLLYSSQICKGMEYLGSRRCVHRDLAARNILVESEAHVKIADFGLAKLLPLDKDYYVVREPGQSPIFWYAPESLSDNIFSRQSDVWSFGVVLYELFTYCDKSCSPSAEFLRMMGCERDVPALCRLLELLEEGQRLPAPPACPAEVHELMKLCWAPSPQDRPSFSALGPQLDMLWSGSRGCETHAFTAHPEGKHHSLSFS
human tyrosine kinase 2 (TYK2), recombinant catalytic domain (Homo sapiens (Human), UniProt P29597), sequence (P29597 833-1187): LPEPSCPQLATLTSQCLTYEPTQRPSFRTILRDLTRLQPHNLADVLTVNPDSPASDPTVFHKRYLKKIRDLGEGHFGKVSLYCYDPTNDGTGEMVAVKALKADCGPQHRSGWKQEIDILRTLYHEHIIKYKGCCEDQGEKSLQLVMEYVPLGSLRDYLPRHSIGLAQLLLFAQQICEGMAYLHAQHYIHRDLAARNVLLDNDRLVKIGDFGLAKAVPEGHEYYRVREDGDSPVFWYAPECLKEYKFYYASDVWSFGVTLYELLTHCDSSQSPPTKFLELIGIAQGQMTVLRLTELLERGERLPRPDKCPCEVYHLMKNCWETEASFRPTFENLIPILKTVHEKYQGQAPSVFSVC
human Janus kinase 2 (JAK2), recombinant catalytic domain, sequence (O60674 808-1132): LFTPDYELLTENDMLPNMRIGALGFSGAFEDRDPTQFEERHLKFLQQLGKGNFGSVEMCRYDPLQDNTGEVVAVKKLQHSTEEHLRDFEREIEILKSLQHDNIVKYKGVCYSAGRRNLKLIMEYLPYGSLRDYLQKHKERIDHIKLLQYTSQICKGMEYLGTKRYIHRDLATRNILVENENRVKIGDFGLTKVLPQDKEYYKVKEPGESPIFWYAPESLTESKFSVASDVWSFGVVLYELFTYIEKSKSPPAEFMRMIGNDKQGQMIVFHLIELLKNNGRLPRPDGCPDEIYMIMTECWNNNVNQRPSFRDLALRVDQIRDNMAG

`Nc1cn2c(-c3ccc(CN4CCS(=O)(=O)CC4)cc3)cccc2n1` [Compound 19]: the IC50 in test [1], in test [3], in test [5] and in test [6] was greater than 5 µM throughout. For the same compound, the “Selectivity JAK3/JAK1” value in test [2] was “D′ (D′ represents a ratio of no greater than 2)”. The “Selectivity TYK2/JAK1” value in test [4] is given as “C′ (C′ represents a ratio of no greater than 4 but no less than 2)”. Moreover, in test [6], the “Selectivity JAK2/JAK1” value is on record as “A′ (A′ represents a ratio of greater than 8)”.

`N#CC1CCN(Cc2ccc(-c3cccc4nc(NC(=O)C5CC5)cn34)cc2)CC1` [Compound 7]: the IC50 (usually the concentration at which inhibition is half-maximal) in test [1] was 0.5 to 1 µM; in test [3], greater than 5 µM; in test [5] it was greater than 5 µM; in test [6], greater than 5 µM. In test [2], the “Selectivity JAK3/JAK1” value is recorded as “A′ (A′ represents a ratio of greater than 8)”. Besides, in test [4], the “Selectivity TYK2/JAK1” value was “A′ (A′ represents a ratio of greater than 8)”. Further, the “Selectivity JAK2/JAK1” value in test [6] is “A′ (A′ represents a ratio of greater than 8)”.

As for `CC1(C)CN(Cc2ccc(-c3cccc4nc(NC(=O)C5CC5)cn34)cc2)C1` [Compound 25], the IC50 in test [1], in test [3], in test [5] and in test [6] was greater than 5 µM throughout. Also, the “Selectivity JAK3/JAK1” value in test [2] was “A′ (A′ represents a ratio of greater than 8)”. In test [4], the “Selectivity TYK2/JAK1” value was “A′ (A′ represents a ratio of greater than 8)”. Moreover, the “Selectivity JAK2/JAK1” value in test [6] was “A′ (A′ represents a ratio of greater than 8)”.

As to `Cc1cc(CN2CCS(=O)(=O)CC2)ccc1-c1cccc2nc(NC(=O)C3CC3)cn12` [Compound 12], the IC50 was 1 to 5 µM in test [1], greater than 5 µM in test [3], greater than 5 µM in test [5] and greater than 5 µM in test [6]. Further, in test [2], the “Selectivity JAK3/JAK1” value is on record as “A′ (A′ represents a ratio of greater than 8)”. Also, the “Selectivity TYK2/JAK1” value in test [4] is listed as “A′ (A′ represents a ratio of greater than 8)”. Also, the “Selectivity JAK2/JAK1” value in test [6] is recorded as “A′ (A′ represents a ratio of greater than 8)”.

Take `CN1CCN(Cc2ccc(-c3cccc4nc(NC(=O)C5CC5)cn34)cc2)CC1` [Compound 5]: the IC50 in test [1], in test [3], in test [5] and in test [6] was greater than 5 µM in each case. For the same compound, in test [2], the “Selectivity JAK3/JAK1” value is recorded as “A′ (A′ represents a ratio of greater than 8)”. Besides, the “Selectivity TYK2/JAK1” value in test [4] is on record as “A′ (A′ represents a ratio of greater than 8)”. The “Selectivity JAK2/JAK1” value in test [6] was “A′ (A′ represents a ratio of greater than 8)”.

As to `N#CCc1ccc(-c2cccc3nc(NC(=O)C4CC4)cn23)c(F)c1` [Compound 16], the IC50 is no more than 0.5 µM in test [1], greater than 5 µM in test [3], greater than 5 µM in test [5] and greater than 5 µM in test [6]. In addition, the “Selectivity JAK3/JAK1” value in test [2] was “A′ (A′ represents a ratio of greater than 8)”. In test [4], the “Selectivity TYK2/JAK1” value was “A′ (A′ represents a ratio of greater than 8)”. Besides, in test [6], the “Selectivity JAK2/JAK1” value is “A′ (A′ represents a ratio of greater than 8)”.

For the compound `O=C(Nc1cn2c(-c3ccc(CN4CCS(=O)(=O)CC4)cc3)cccc2n1)C1CCC1` [Compound 3], the IC50 in test [1] was 1 to 5 µM; in test [3] it was greater than 5 µM; in test [5], greater than 5 µM; in test [6] it was greater than 5 µM. In addition, the “Selectivity JAK3/JAK1” value in test [2] is “A′ (A′ represents a ratio of greater than 8)”. Also, the “Selectivity TYK2/JAK1” value in test [4] is given as “A′ (A′ represents a ratio of greater than 8)”. In addition, in test [6], the “Selectivity JAK2/JAK1” value was “A′ (A′ represents a ratio of greater than 8)”.

For `O=C(Nc1cn2c(-c3ccc(CN4CCOCC4)cc3)cccc2n1)C1CC1` [Compound 4], the IC50 in test [1] was 0.5 to 1 µM; in test [3], greater than 5 µM; in test [5], greater than 5 µM; in test [6], greater than 5 µM. In addition, the “Selectivity JAK3/JAK1” value in test [2] is on record as “A′ (A′ represents a ratio of greater than 8)”. Besides, the “Selectivity TYK2/JAK1” value in test [4] is on record as “A′ (A′ represents a ratio of greater than 8)”. In test [6], the “Selectivity JAK2/JAK1” value is reported as “A′ (A′ represents a ratio of greater than 8)”.
